Data as given in patent US10221152B2 (priority 2013, dated 2019).
≈ marks a conversion by molar mass, not a printed value. Structures can show the parent of a compound that is named as a salt. Where two headings read alike, the source gives them in different places.

Tests used:
[1] = tested on: Influenza A/WSN/33 (H1N1); test: microbe, parasite or virus in culture; assay type: cell-based, Influenza A virus; conditions: for EC50: read-out: H1N1 WSN EC50
H1N1 WSN viral strain = tested on: H1N1 WSN viral strain; set-up: species or system BALB/c mice; conditions: mouse, in vivo, po
influenza virus (H3N2) = test: organism not typed; assay type: cell-based, Influenza A virus; conditions: for EC50: read-out: H3N2 EC50
influenza virus (H1N1) = test: organism not typed; assay type: cell-based, Influenza A virus

In the case of `COc1c(C)c2c(c(O)c1C/C=C(\C)CCC(=O)OCCN1CCOCC1)C(=O)OC2` [MPM-N, mycophenolate mofetil hydrochloride], the “Minimal Inhibitory Concentration (MIC), WSN” value ([1]; hydrochloride) is reported as 0.0488 µg/mL and the “survival rate of mice” value (H1N1 WSN viral strain) is reported as 23.3%.
With `CCOC(=O)C1=C[C@@H](OC(CC)CC)[C@H](NC(C)=O)[C@@H](N)C1` [Tamiflu] the “survival rate of mice” value (H1N1 WSN viral strain) was 100% and the “survival rate of mice” value (H1N1 WSN viral strain; 0.1 mg/kg) was 46.7%.
`NC(=O)c1ncn([C@@H]2O[C@H](CO)[C@@H](O)[C@H]2O)n1` [Ribavirin, reference compound] was tested, and the EC50 (influenza virus (H3N2)) was 12.5 µg/mL (≈ 51.2 µM) and the EC50 ([1]; Influenza A virus) was 3.12 µg/mL (≈ 12.8 µM).
`COc1c(C)c2c(c(O)c1C/C=C(\C)CCC(=O)OCCN1CCOCC1)C(=O)OC2` [MPM, 2-morpholinoethyl(E)-6-(1,3-dihydro-4-hydroxy-6-methoxy-7-methyl-3-oxo-5-isobenzofuranyl)-4-methyl-4-hexenoate] was tested, and the “survival rate in MDCK cells” value (influenza virus (H1N1)) was 75%, the MIC (influenza virus (H1N1); read-out: Minimal Inhibitory Concentration (MIC), H1N1) was 0.195 µg/mL (≈ 0.45 µM) and the EC50 (influenza virus (H3N2)) was 1.56 µg/mL (≈ 3.6 µM). The MIC (influenza virus (H3N2); read-out: Minimal Inhibitory Concentration (MIC), H3N2) was 1.56 µg/mL (≈ 3.6 µM), the “antiviral activity against WSN influenza virus” value [1] was “active” and the “cell survival (MTT), D + V” value [1] was “++++ (key: 0˜25% cell survival is recorded as +/−; 25˜50% cell survival is recorded as +; 50˜75% cell survival is recorded as ++; 75˜100% cell survival is recorded as +++; >100% cell survival is recorded as ++++)”. For the same compound, the EC50 ([1]; Influenza A virus) was 0.098 µg/mL (≈ 0.226 µM), the MIC ([1]; Influenza A virus, read-out: Minimal Inhibitory Concentration (MIC), WSN) was 0.097 µg/mL (≈ 0.224 µM) and the toxicity to cells (MDCK cells) was “nontoxic to cells”.
